Measurements as given in patent publication US20260078089A1, “BIOACTIVE PHYTOCHEMICALS IN ZIZYPHUS AND GUARANA” (Phytoquest Limited, priority 2018, published 2026).

Legend:
Format in all cases: biochemical
glucosidases = experiment: Glycosidase panel, glucosidases overall; details: panel of glucosidases
Protocol: Glycosidase assays were conducted on Compounds 1 and 3 and an extract of Zizyphus used in the disaccharide loading mouse studies to determine if glucosidase inhibition might explain the effects on blood glucose. A panel of glycosidases were used to be sure any activity found was a selective inhibition and not just non-specific binding to the enzyme.
Glycosidase assays were conducted as described by Watson et al. (Phytochemistry 1997, 46, 255) using p-nitrophenyl-substrates (except sialidase which used methylumbeliferyl-N-acetyineuraminic acid as substrate). Assays were carried out in microtitre plates. Enzymes were assayed in 0.1 M citric acid/0.2 M di-sodium hydrogen phosphate (McIlvaine) buffers at the optimum pH for the enzyme. All assays were carried out at 20° C. All enzymes and substrates were purchased from Sigma Aldrich Chemicals Limited. The incubation mixture consisted of 10 μl of enzyme solution, 10 μl of the iminosugars solution and 50 μl of the appropriate 5 mM p-nitrophenyl substrate made up in McIlvaine buffer at the optimum pH for the enzyme. The reactions were stopped with 0.4 M glycine (pH 10.4) during the exponential phase of the reaction. Absorbances were read at 405 nm. Water was substituted for the alkaloids in the blanks. Reactions were carried out in triplicate. […]

α-D-glucosidase [1] = molecular target: T1, α-D-glucosidase (Oryza sativa subsp. japonica, UniProt Q653V7); experiment: Glycosidase assay, p-nitrophenyl substrate; details: Rice enzyme; screened at 0.14 mg mL−1 (footnote: 0.4 mM)
T1 construct: purchased Sigma Aldrich Chemicals Limited
T1 sequence (Q653V7 34-885): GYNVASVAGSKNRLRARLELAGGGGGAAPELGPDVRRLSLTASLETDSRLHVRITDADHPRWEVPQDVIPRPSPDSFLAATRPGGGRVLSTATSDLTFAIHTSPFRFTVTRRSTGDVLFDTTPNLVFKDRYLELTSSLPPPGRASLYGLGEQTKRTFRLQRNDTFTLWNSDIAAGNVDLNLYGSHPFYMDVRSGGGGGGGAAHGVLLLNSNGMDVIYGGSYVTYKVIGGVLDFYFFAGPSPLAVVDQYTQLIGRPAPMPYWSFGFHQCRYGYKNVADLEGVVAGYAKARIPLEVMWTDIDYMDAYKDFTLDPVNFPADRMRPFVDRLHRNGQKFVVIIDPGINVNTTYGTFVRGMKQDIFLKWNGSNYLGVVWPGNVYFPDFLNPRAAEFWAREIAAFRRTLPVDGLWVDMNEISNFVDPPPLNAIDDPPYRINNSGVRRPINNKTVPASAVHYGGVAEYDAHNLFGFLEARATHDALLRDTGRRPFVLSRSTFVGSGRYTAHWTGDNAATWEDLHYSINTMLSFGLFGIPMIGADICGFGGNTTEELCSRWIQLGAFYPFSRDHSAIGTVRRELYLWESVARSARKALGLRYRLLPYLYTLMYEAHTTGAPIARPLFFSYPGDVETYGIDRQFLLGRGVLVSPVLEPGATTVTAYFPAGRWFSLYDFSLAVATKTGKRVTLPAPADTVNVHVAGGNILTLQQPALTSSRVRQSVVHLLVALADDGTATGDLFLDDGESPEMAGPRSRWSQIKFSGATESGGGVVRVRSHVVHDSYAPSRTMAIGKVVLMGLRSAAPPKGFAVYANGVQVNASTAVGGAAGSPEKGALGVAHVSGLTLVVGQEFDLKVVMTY
Protocol: (§1) Glycosidase assays were conducted as described by Watson et al. (Phytochemistry 1997, 46, 255) using p-nitrophenyl-substrates (except sialidase which used methylumbeliferyl-N-acetyineuraminic acid as substrate). Assays were carried out in microtitre plates. Enzymes were assayed in 0.1 M citric acid/0.2 M di-sodium hydrogen phosphate (McIlvaine) buffers at the optimum pH for the enzyme. All assays were carried out at 20° C. All enzymes and substrates were purchased from Sigma Aldrich Chemicals Limited. The incubation mixture consisted of 10 μl of enzyme solution, 10 μl of the iminosugars solution and 50 μl of the appropriate 5 mM p-nitrophenyl substrate made up in McIlvaine buffer at the optimum pH for the enzyme. The reactions were stopped with 0.4 M glycine (pH 10.4) during the exponential phase of the reaction. Absorbances were read at 405 nm. Water was substituted for the alkaloids in the blanks. Reactions were carried out in triplicate.
(§2) Enzyme inhibitor solutions—Compounds were dissolved in distilled water at a concentration of 1 mg mL^−1 and then screened at a concentration of 0.14 mg mL^−1 after dilution of the 1 mg mL^−1 in the assay volumes of substrates.

[2] = molecular target: T2, N-acetyl-β-D-hexosaminidase (Aspergillus oryzae, UniProt Q8J2T0); experiment: Glycosidase assay, p-nitrophenyl substrate; details: Aspergillus oryzae enzyme; screened at 0.14 mg mL−1 (footnote: 0.4 mM)
T2 construct: purchased Sigma Aldrich Chemicals Limited
T2 sequence (Q8J2T0 97-600): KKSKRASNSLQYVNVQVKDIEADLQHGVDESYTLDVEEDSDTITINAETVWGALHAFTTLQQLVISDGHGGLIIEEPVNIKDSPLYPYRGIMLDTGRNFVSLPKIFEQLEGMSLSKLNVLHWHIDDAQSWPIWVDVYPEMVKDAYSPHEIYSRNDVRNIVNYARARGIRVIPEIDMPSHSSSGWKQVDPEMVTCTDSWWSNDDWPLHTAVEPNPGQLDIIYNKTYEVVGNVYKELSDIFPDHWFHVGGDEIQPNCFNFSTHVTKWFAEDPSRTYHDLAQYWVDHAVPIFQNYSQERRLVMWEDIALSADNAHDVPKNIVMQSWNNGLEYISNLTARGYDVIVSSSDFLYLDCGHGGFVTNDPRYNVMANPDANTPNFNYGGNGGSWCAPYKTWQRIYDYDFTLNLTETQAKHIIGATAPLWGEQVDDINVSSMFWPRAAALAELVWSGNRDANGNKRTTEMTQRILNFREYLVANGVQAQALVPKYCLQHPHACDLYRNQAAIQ
Protocol: as §1, §2

Amyloglucosidase = molecular target: T3, Amyloglucosidase (Aspergillus niger, UniProt P69328); experiment: Glycosidase assay, p-nitrophenyl substrate; details: Aspergillus niger enzyme; screened at 0.14 mg mL−1 (footnote: 0.4 mM)
T3 construct: purchased Sigma Aldrich Chemicals Limited
T3 sequence (P69328 25-640): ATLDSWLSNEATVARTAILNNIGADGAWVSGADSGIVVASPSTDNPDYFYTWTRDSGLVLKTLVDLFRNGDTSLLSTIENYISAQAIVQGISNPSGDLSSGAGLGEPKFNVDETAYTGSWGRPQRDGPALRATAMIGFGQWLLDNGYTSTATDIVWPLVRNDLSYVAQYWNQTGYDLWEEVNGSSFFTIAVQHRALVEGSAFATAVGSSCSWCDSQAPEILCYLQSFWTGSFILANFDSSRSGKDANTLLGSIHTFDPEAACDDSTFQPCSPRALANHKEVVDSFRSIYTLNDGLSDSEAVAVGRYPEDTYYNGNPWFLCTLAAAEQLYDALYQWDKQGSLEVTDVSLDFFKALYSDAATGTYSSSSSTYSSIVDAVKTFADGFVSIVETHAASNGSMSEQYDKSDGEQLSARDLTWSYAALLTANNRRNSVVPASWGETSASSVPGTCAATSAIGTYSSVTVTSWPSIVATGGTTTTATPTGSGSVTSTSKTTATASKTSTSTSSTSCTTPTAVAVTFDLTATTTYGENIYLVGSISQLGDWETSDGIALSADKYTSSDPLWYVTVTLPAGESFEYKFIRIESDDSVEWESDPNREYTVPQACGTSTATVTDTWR
Protocol: as §1, §2

Naringinase = experiment: Glycosidase assay, p-nitrophenyl substrate; details: Penicillium decumbens enzyme; screened at 0.14 mg mL−1 (footnote: 0.4 mM)
Protocol: as §1, §2

α-D-glucosidase [3] = experiment: Glycosidase assay, p-nitrophenyl substrate; details: Bacillus sterothermphilus enzyme; screened at 0.14 mg mL−1 (footnote: 0.4 mM)
Protocol: as §1, §2

α-L-fucosidase = molecular target: T4, α-L-fucosidase (Bos taurus, UniProt Q2KIM0); experiment: Glycosidase assay, p-nitrophenyl substrate; details: Bovine kidney enzyme; screened at 0.14 mg mL−1 (footnote: 0.4 mM)
T4 construct: purchased Sigma Aldrich Chemicals Limited
T4 sequence (Q2KIM0 23-468): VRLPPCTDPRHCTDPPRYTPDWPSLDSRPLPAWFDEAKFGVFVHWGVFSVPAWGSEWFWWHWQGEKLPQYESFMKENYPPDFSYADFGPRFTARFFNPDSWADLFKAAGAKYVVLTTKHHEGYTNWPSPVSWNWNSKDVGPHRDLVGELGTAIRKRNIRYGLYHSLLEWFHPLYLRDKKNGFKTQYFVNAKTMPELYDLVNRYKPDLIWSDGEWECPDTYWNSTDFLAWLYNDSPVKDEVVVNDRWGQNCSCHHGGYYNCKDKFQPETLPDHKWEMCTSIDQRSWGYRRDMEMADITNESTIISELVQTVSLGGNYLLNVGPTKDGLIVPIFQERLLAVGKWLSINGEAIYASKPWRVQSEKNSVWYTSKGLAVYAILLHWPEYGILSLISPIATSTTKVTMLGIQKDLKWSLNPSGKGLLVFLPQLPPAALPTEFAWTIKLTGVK
Protocol: as §1, §2

α-D-galactosidase = molecular target: T5, α-D-galactosidase (Coffea arabica, UniProt Q42656); experiment: Glycosidase assay, p-nitrophenyl substrate; details: Green coffee bean enzyme; screened at 0.14 mg mL−1 (footnote: 0.4 mM)
T5 construct: purchased Sigma Aldrich Chemicals Limited
T5 sequence (Q42656 16-378): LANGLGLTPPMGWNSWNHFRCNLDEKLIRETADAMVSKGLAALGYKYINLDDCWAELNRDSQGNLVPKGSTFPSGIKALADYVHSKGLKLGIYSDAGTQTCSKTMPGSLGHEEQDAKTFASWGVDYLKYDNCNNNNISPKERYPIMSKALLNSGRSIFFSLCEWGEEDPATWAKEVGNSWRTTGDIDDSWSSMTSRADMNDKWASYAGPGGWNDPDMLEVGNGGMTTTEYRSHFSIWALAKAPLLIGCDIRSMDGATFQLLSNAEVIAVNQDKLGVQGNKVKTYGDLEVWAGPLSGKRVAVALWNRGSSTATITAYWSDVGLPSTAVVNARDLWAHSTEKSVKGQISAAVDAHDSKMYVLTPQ
Protocol: as §1, §2

β-D-galactosidase = experiment: Glycosidase assay, p-nitrophenyl substrate; details: Bovine liver enzyme; screened at 0.14 mg mL−1 (footnote: 0.4 mM)
Protocol: as §1, §2

[4] = test system: N-acetyl-β-D-glucosaminidase; experiment: Glycosidase assay, p-nitrophenyl substrate; details: screened at 0.14 mg mL−1 (footnote: 0.4 mM)
Protocol: as §1, §2

α-D-mannosidase = molecular target: T6, α-D-mannosidase (Canavalia ensiformis, UniProt C0HJB3); experiment: Glycosidase assay, p-nitrophenyl substrate; details: Jack bean enzyme; screened at 0.14 mg mL−1 (footnote: 0.4 mM)
T6 construct: purchased Sigma Aldrich Chemicals Limited
T6 sequence (C0HJB3 1-981): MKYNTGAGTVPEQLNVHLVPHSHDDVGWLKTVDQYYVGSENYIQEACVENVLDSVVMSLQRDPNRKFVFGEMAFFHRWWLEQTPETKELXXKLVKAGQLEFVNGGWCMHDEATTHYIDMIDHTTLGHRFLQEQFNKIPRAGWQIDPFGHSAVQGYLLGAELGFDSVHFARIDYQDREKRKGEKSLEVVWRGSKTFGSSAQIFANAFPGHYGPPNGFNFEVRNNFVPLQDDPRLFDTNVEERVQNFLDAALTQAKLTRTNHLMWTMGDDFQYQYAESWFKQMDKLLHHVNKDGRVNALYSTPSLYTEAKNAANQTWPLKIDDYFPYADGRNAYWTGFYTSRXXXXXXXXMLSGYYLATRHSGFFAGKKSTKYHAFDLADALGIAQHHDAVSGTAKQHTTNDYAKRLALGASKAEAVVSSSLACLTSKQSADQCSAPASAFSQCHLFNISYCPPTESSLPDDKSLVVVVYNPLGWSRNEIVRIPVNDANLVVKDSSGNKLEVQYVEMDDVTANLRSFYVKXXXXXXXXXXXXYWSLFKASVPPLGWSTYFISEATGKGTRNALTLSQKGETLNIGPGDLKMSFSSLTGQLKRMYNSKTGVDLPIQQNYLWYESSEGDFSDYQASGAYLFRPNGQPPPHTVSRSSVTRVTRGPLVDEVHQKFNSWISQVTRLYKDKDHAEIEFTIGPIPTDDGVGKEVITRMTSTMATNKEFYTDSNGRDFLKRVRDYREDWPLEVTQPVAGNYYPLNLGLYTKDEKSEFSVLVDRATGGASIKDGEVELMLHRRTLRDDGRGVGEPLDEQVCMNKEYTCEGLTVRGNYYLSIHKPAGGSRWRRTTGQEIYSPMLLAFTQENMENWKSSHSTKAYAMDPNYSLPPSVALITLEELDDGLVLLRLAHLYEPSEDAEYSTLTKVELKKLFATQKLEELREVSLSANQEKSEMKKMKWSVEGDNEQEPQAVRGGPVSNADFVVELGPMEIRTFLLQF
Protocol: as §1, §2

β-D-glucosidase = experiment: Glycosidase assay, p-nitrophenyl substrate; details: Almond enzyme; screened at 0.14 mg mL−1 (footnote: 0.4 mM)
Protocol: as §1, §2

SMILES: OC[C@H]1N[C@H](CO)[C@@H](O)[C@@H]1O [DMDP]
- glucosidase inhibition (in words) (glucosidases): expected strong inhibition of various glucosidases
- % inhibition (α-D-glucosidase [1]): 94.59%
- % inhibition [2]: 5.62%
- % inhibition (Amyloglucosidase): 46.84%
- % inhibition (Naringinase): 2.97%
- % inhibition (α-D-glucosidase [3]): 92.98%
- % inhibition (α-L-fucosidase): 4.84%
- % inhibition (α-D-galactosidase): 6.95%
- % inhibition (β-D-galactosidase): 98.75%
- % inhibition ([4]; Bovine kidney enzyme): −7.60%
- % inhibition ([4]; Jack bean enzyme): −6.65%
- % inhibition (α-D-mannosidase): 2.70%
- % inhibition (β-D-glucosidase): 96.61%
